{
  "source": "patent US8735150B2",
  "about": "“Methods for detecting embryonic stem cells, induced pluripotent stem cells, or cells undergoing reprogramming to produce induced pluripotent stem cells” (New York University, priority 2010, dated 2014)",
  "key": {"[1]": {"system": "human lung cancer cell line H522", "assay": "Comparison of CDy1 and ALDEFLUOR staining in H522", "format": "cell-based", "conditions": "fluorescence microscopy", "description": "(§1) In this experiment, the cells cultured on 6-well plates were incubated with 1 μM ALDEFLUOR® for one hour at 37° C. and then washed with PBS three times before ALDEFLUOR® assay buffer was added. Bright field (“B.F”) and fluorescence (FITC filter for ALDEFLUOR® and TRITC filter for CDy1) images were taken using a Nikon ECLIPSE Ti fluorescence microscope (Scale bars, 100 μm).\n(§2) Among the few fluorescent dyes used for stem cell staining (Zijlmans et al., “Modification of Rhodamine Staining Allows Identification of Hematopoietic Stem Cells with Preferential Short-term or Long-term Bone Marrow-Repopulating Ability,” Proc. Natl. Acad. Sci. USA, 92:8901-8905 (1995), which is hereby incorporated by reference in its entirety) is ALDEFLUOR® which employs a fluorescent substrate BODIPY-aminoacetaldehyde for aldehyde dehydrogenase (ALDH)1A1 (Storms et al., “Isolation of Primitive Human Hematopoietic Progenitors on the Basis of Aldehyde Dehydrogenase Activity,” Proc. Natl. Acad. Sci. USA, 96: 9118-9123 (1999), which is hereby incorporated by reference in its entirety). It has been used to identify and isolate certain types of stem cells including hematopoietic, neural, and mammary stem cells as well as cancer stem cells. Whether or not ALDEFLUOR® stains ESC has not been known. […] The stemness of hESC BG01V used in this study was verified by immunocytochemical staining of TRA-1-60 (FIG. 14)."}, "differentiated mESC": {"system": "differentiated mESC", "assay": "CDy1 staining of differentiated mESC after LIF removal", "format": "cell-based, mouse", "conditions": "three days culture without LIF", "from_the_text": "Morphologically distinguishable differentiated cells were observed after three days culture of mESC in the absence of LIF. As shown in the center panel, most of those cells were CDy1 negative, while some other cells that retained mESC morphology were stained by the dye.\nOn the other hand, removing the LIF from the culture media induced mESC differentiation and it was observed that some cells were morphologically distinguishable from mESC three days later. Most of the differentiated cells were not stained by CDy1, while some other cells with mESC morphology were stained by the dye showing a similar pattern with immunocytochemical staining by Oct4 antibody (FIG. 11)."}, "mESC [2]": {"system": "mESC", "assay": "Comparison of CDy1 and ALDEFLUOR staining in mESC", "format": "cell-based, mouse", "conditions": "fluorescence microscopy", "description": "as §1, §2"}, "mitochondria in mESC": {"system": "mitochondria in mESC", "assay": "Co-staining of mESC with CDy1 and MITOTRACKER Deep Red 633", "format": "cell-based, mouse", "description": "In this experiment mESC were incubated with 500 nM CDy1, 200 nM MITOTRACKER® Deep Red 633, and 4 mg/ml Hoechst for 30 minutes at 37° C. and washed with PBS two times. The cells were mounted on slide glass and the images were taken using a Nikon ECLIPSE Ti fluorescence microscope equipped with a ×100 objective lens (Pearson's correlation coefficient=0.88; scale bar, 5 μm).\nIn a previous study (Kim et al., “Control of Muscle Differentiation by a Mitochondria-Targeted Fluorophore,” J. Am. Chem. Soc. 132(2): 576-579 (2009), which is hereby incorporated by reference in its entirety), CDy1 was among the compounds targeting mitochondria. To examine whether CDy1 localizes in mitochondria in mESC, the cells were co-stained with CDy1 and a mitochondria-staining commercial dye MITOTRACKER® Deep Red 633. […] In addition to the mitochondrial membrane potential which sequesters many cationic rhodamine and rosamine compounds, other factors such as stem cell specific proteins appear to play roles in the entry and retainment of CDy1 rendering it stem cell selective."}, "mESC [3]": {"system": "mESC", "assay": "FACS isolation of mESC from a MEF and mESC mixture stained with CDy1; Nanog RT-PCR and colony forming assay", "format": "cell-based, mouse", "description": "MEFs and mESCs were cultured in 60 mm culture dishes for 24 hours in the presence of 500 nM of hit compounds including CDy1. The cells were harvested by trypsin treatment, washed with PBS, and resuspended in PBS. The fluorescence intensity of the cells was measured with flow cytometry (BD™ LSR II) with PE-Texas Red filter (excitation at 488 nm, emission at 615 nm). The dot plot images for each cell type were overlaid using FlowJo7 (Tree Star Inc., Ashland, Oreg.). For FACS, MEF and mESC were cultured in the same dish and the sample was prepared as described above for flow cytometry. The cells were gated into SSC^low CDy1^bright and SSC^high CDy1^dim regions and were collected using a FACS machine (BD FACS Aria™, BD Biosciences, Franklin Lakes, N.J.).\nTotal RNA was isolated from cells using RNeasy Mini Kit (QIAGEN Inc.) according to the manufacturer's instruction. cDNA was synthesized from 1 μg of total RNA using REVERTAID™ H Minus First strand cDNA Synthesis kit (Fermentas, Glen Burnie, Md.) and amplified by PCR using GOTAQ® Green Master Mix (Promega, Fitchburg, Wis.). The PCR conditions were as follows: 30 seconds denaturation at 95° C., 30 seconds annealing at 60° C., and a final 30 seconds of extension at 72° C. The sequences of primers used in this study are: Nanog (GenBank Accession No. NM_028016.1): sense 5′-[…]-3′ (SEQ ID NO:1), antisense 5′-[…]-3′ (SEQ ID NO:2); GAPDH (GenBank Accession No. XM—001473443.1): sense 5′-[…]-3′ (SEQ ID NO:3), antisense 5′-[…]-3′ (SEQ ID NO:4). The PCR products obtained after 25 cycles were resolved on 1% agarose gels, visualized by ethidium bromide staining, and the images were taken using a Gel Logic 200 Imaging System (Kodak, Rochester, N.Y.).\nTo evaluate the capability of CDy1 to isolate ESC from a mixed cell population, a MEF and mESC mixture was stained with CDy1, the mixed cells were gated into SSC^low CDy1^bright and SSC^high CDy1^dim regions, and 40,000 cells were collected by FACS from each gate for a stem cell marker Nanog gene expression analysis and colony forming assay. […]"}, "mESC [4]": {"system": "mESC", "assay": "Flow cytometry of mESC and MEF incubated separately with rosamine hit compounds (secondary screening)", "format": "cell-based, mouse", "conditions": "500 nM", "description": "FIG. 5 is a table of flow cytometry results, which show the structure-cell selectivity relationship in CDy1 analogues. The ratios of mESC to MEF fluorescence mean values obtained from flow cytometry were used for cell selectivity analysis. The cells were incubated with 500 nM of each compound for one hour and washed with phosphate buffered saline (PBS) for flow cytometry.\nMEFs and mESCs were cultured in 60 mm culture dishes for 24 hours in the presence of 500 nM of hit compounds including CDy1. The cells were harvested by trypsin treatment, washed with PBS, and resuspended in PBS. The fluorescence intensity of the cells was measured with flow cytometry (BD™ LSR II) with PE-Texas Red filter (excitation at 488 nm, emission at 615 nm). The dot plot images for each cell type were overlaid using FlowJo7 (Tree Star Inc., Ashland, Oreg.). […]\nFor a high-throughput screening, mESC and MEF feeder cells were incubated with 280 rosamine compounds at a concentration of 500 nM in 384-well microplates. After 0.5 hours, 24 hours, and 48 hours, TRITC fluorescence and bright field images were taken using an ImageXpress^MICRO imaging system. […] As a secondary screening, mESC and MEF were incubated separately with each of the hit compounds and these were analyzed using flow cytometry (see work flow set out in FIGS. 1A-1B; results shown in FIGS. 2A-2C and FIG. 3)."}, "[5]": {"system": "cells undergoing reprogramming to induced pluripotent stem cells (Oct4-GFP transgenic MEF)", "assay": "FACS isolation of cells undergoing reprogramming with CDy1 and counting of GFP-positive iPS cell colonies", "format": "cell-based, mouse", "conditions": "sorted by FACS at 10 dpi, 7% of total cell number", "description": "Oct4-GFP transgenic mouse embryonic fibroblasts (MEF) transfected with retrovirus expressing Oct4, Sox2, Klf4, and c-Myc were incubated with CDy1 at 10 days post infection (dpi). The cells were harvested using trypsin-EDTA and CDy1^bright and CDy1^dim cells defined as 7% of the total cell number at each end were collected by FACS, plated in culture media, and allowed to grow until 20 dpi for counting the number of induced pluripotent stem (“iPS”) cell colonies which were identified by GFP signal (FIG. 15A).\nAmong the many cell colonies observed in the bright field images, GFP signal was detected from some of them by fluorescence excitation (FIG. 15B)."}, "iPSC": {"system": "iPSC", "assay": "CDy1 staining of iPSC colonies generated from Oct4-GFP transgenic mouse MEF", "format": "cell-based", "description": "The retroviral packaging cell, PlatE cell, was maintained in DMEM containing 10% FBS, 100 U/ml penicillin, 100 μg/ml streptomycin, 10 μg/mlblasticidin S, and 1 μg/ml puromycin. For the generation of retroviruses, 40 μg of each retroviral vector expressing each mouse Oct4, Sox2, Klf4, and c-Myc was transfected together using Lipofectamine™ 2000 (Invitrogen, Carlsbad, Calif.) into PlatE cells plated at a density of 8×10^6 cells/10 cm cell culture dish and cultured overnight in DMEM containing 10% FBS. Medium was changed five hours after transfection to normal maintenance medium and incubated further in a humidified atmosphere of 5% CO2 and 95% air at 37° C. Culture supernatant was harvested 48 hours after transfection, filtered through a 0.45 μm syringe filter, concentrated by using amicon ultra-15 Centrifugal filter units (Millipore, Billerica, Mass.), and stored at −80° C. until use. For reprogramming, MEFs prepared from E13.5 B6; CBA-Tg(Pou5f1-EGFP)2Mnn/J mouse (Jackson Laboratory, Bar Harbor, Me.) embryo were infected with retrovirus mixture eight hours later. Polybrene (Sigma-Aldrich, St. Louis, Mo.) was added at a concentration of 10 μg/ml to increase virus adsorption. Infected MEFs were harvested 48 hours later by trypsinization and plated onto mytomycin C treated MEF feeder cells. The cells were maintained in mESC culture medium that was changed every day until designated time points.\nThe reprogramming was performed in a 6-well culture dish by retroviral introduction of four transcriptions factors: Oct4, Sox2, Klf4, and c-Myc (Takahashi et al., “Induction of Pluripotent Stem Cells from Mouse Embryonic and Adult Fibroblast Cultures by Defined Factors,” Cell, 126(4):663-676 (2006), which is hereby incorporated by reference in its entirety). iPSC generation was verified by GFP expression, alkaline phosphatase assay, and immunostaining of SSEA-1 at 17 days post infection (“dpi”). […] When the 155 colonies grown in 6-well plate cells were treated with CDy1 at 17 dpi, 101 colonies (65%) were both CDy1 and GFP positive, 26 (17%) were CDy1-only positive, 4 (3%) were GFP-only positive and 24 (15%) were negative both for CDy1 and GFP, despite the fact that the morphology of the colonies was indistinguishable (FIG. 9).\nIn a cell culture treated with CDy1 at an earlier time point of iPSC generation (10 dpi), increasing numbers of CDy1-stained colonies started to show GFP signal during the following days (FIG. 10A). To perform a more systematic analysis, the cells were stained with CDy1 at 2 dpi (i.e., when iPSC was not distinguishable by any means) and the CDy1 and GFP signals were tracked by daily acquisition of cell images using an ImageXpress^MICRO system. At 10 dpi, when small colonies started to appear, 342 CDy1-positive but GFP-negative colonies were selected and their GFP expression was followed until 25 dpi. An increasing number of colonies started to express GFP during this period, and 338 (99%) out of the 342 tracked colonies were GFP-positive at 25 dpi (FIG. 10B)."}, "[6]": {"conditions": "40,000 cells collected by FACS, three days culture"}},
  "data": [
    {"molecule": "CCCCN(CCCC)c1ccc2c(-c3cccc(CN4CCOCC4)c3)c3ccc(=N)cc-3oc2c1", "note": "[CDy1]", "values": [
      {"measurement": "staining of H522", "setting": "[1]", "result": "not"},
      {"measurement": "staining of differentiated cells", "setting": "differentiated mESC", "result": "not stained"},
      {"measurement": "staining of mESC", "setting": "mESC [2]", "result": "stained both"},
      {"measurement": "staining pattern compared with MITOTRACKER staining", "setting": "mitochondria in mESC", "result": "very similar to MITOTRACKER® staining"},
      {"measurement": "Pearson's correlation coefficient of CDy1 and MITOTRACKER co-localization", "setting": "mitochondria in mESC; 500 nM CDy1, 200 nM MITOTRACKER Deep Red 633, 30 minutes at 37° C.", "result": 0.88},
      {"measurement": "number of colonies from SSChigh CDy1dim cells", "setting": "mESC [3]; [6]", "result": 6},
      {"measurement": "number of colonies from SSClow CDy1bright cells", "setting": "mESC [3]; [6]", "result": 604},
      {"measurement": "Nanog expression in SSClow CDy1bright cells versus SSChigh CDy1dim cells", "setting": "mESC [3]; RT-PCR", "result": "much higher"},
      {"measurement": "higher fluorescence intensity in mESC than in MEF (ratio of mESC to MEF fluorescence mean values)", "setting": "mESC [4]", "result": 12.2, "unit": "fold"},
      {"measurement": "mESC selectivity (in words)", "setting": "mESC [4]; mESC vs MEF", "result": "most selective for mESCs among the 20 hit compounds"},
      {"measurement": "GFP-positive iPS cell colonies from CDy1dim cells", "setting": "[5]", "result": "no colonies"},
      {"measurement": "GFP-positive iPS cell colonies per well from CDy1bright cells", "setting": "[5]", "result": 51, "unit": "colonies per well"},
      {"measurement": "earliest CDy1 staining of the cells that expressed GFP at 12 dpi", "setting": "iPSC", "result": 6, "unit": "dpi"},
      {"measurement": "differences in number of GFP-positive colonies or cell morphology compared to untreated iPSC", "setting": "iPSC; 10 to 25 dpi", "result": "no detectable differences"}
    ]}
  ]
}
